Results published in US10017681B2, “Corrosion inhibitors” (RHODIA OPERATIONS, priority 2014, dated 2018).
Like-named read-outs stand apart in the source and are kept apart here. Marks after values point to notes of the source that are not given here.

How the values were obtained:
[1] = LPR (Linear Polarisation Resistance) bubble test, Example 2; conditions: 90/10 5% NaCl/Isopar M, 60° C., CO2
Method: (§1) Corrosion inhibition properties were screened using the LPR (Linear Polarisation Resistance) bubble test method and the film persistence of the surfactants was evaluated using a Rotating Cylinder Electrode (RCE). The conditions were the same in both tests.
(§2) A 90/10 brine (5% w/w NaCl) and Isopar M (C9-15 iso-paraffins) mixture at 60° C. was saturated with CO2. The electrodes were immersed in the brine and left for several hours to establish the base line corrosion rate before injecting the surfactant.
The corrosion rate at 15 hours was used to benchmark the efficacy of the formulations containing octyl phosphonic acid against a commercial corrosion inhibitor. Synergistic properties of the surfactant mixtures were identified by comparing them against the corrosion rates of the individual surfactants.
The surfactant ratios for the LPR/RCE measurements were 80/20 and 50/50 Cl/octyl phosphonic acid and compared against the individual surfactants.

[2] = Foam tendency (dynamic foam test, ASTM G170-06); format: physicochemical; conditions: 1000 ppm active; 50/50 v/v Isopar M and 5% NaCl, 25° C.
Method: Foam tendencies were investigated using the methods described in ASTM G170-06 (2012) ‘Standard Guide for Evaluating and Qualifying Oilfield and Refinery Corrosion Inhibitors in the Laboratory’.
A graduated dynamic foam test apparatus (1000 ml measuring cylinder) fitted with a No. 1 porosity gas sparge tube was used for the test. 1000 ppm of corrosion inhibitor was added to a 50/50 v/v brine (5% NaCl solution) and Isopar M mixture (200 ml) at ambient temperature (25° C.). The mixture was left for 10 minutes before immersing the sparge tube in the brine layer. Nitrogen gas (flow rate: 0.5 litre/min) was injected into the solution and the volume of foam produced was measured over a set period of time (10 minutes).
If the foam reached the 1000 ml mark (800 ml foam volume) before the 10 minutes had elapsed then the time taken for the foam to reach the 1000 ml mark (800 ml of foam) was recorded. The volume of foam produced after the allotted time was also recorded.
The foam persistence was determined by measuring the foam volume after 10 minutes.

[3] = RCE film persistence under high shear (4000 rpm), Example 2; conditions: high shear rates (4000 rpm)
Method: as §1, §2
A shear rate of 4000 rpm was used to simulate very high shear conditions in order to determine the film persistence properties of the surfactants.
The persistence of the surfactant corrosion inhibitor film was also assessed under high shear rates (4000 rpm).

[4] = Emulsion tendency (ASTM G-170); format: physicochemical; conditions: for Brine (ml) @ T = 30 mins / Isopar M (ml) @ T = 30 mins / Pad (ml) @ T = 30 mins / Emulsion Layer (%): 1000 ppm active, 50/50 v/v Isopar M and 5% NaCl, 25° C.; for Emulsion Layer (%): after 30 minutes
Method: The emulsification behaviours of the alkyl phosphonic acids were investigated using the standard test procedure, ASTM G-170. It will be appreciated that, in general, corrosion inhibition formulations which have a low tendency to form emulsions with hydrocarbons are preferred.
1000 ppm active corrosion inhibitor formulation was added to a 250 ml measuring cylinder containing 100 ml 50/50 v/v 5% NaCl and Isopar M respectively. The cylinder was sealed and shaken 100 times.
The mixture was allowed to rest and the emulsion and brine layer volumes were recorded. The brine, Isopar M and emulsion layers were measured at 5, 10 and 30 minutes respectively.

[5] = Dynamic surface tension (maximum bubble pressure method); format: physicochemical; conditions: 1000 ppm (as active) in 5% NaCl, 25° C., surface age 30 seconds
Method: Dynamic Surface Tension measurements were therefore carried out using a Messtechnik SITA T60 tensiometer for mixtures of the alkyl phosphonic acids with selected surfactants (anionic and amphoteric) in 5% NaCl.
These tests were carried out using the maximum bubble pressure method (see ‘Exploiting Surfactant Synergies in the Development of Foamers for Gas Well Deliqufication’, K Hatchman, C Jones, B Downward, G Collins, A Fellows, Proceedings of Chemistry In The Oil Industry XII, Royal Society of Chemistry, 2011).
The surface tensions were measured for 1000 ppm (as active) at a surface age of 30 seconds (equilibrium conditions) and ambient temperature (25° C.).

[6] = Bubble test (LPR), Example 1; conditions: on its own
Method: A bubble test was carried out as follows: • Clean corrosion cells were fitted with a stirring bar, auxiliary electrode, reference electrode, gas sparge tube, and glass periscope. • Each cell was charged with 999 g of the desired corrosion fluid. In this instance a 5% NaCl brine and Isopar M oil phase was used in a 9:1 ratio. • The cells were placed in a water bath set at 60° C. and set to stir at approximately 300 rpm. • Each cell was connected to a constant sparge of CO2 approx. 60 cm^3/min and then left for 1 hour to reach equilibrium. • C1018 mild steel coupons were washed with xylene and acetone to remove any vapour phase corrosion inhibitor and allowed to dry. • After the cells reached equilibrium the mild steel coupons were connected to the working electrodes and inserted into each cell using the glass periscopes to avoid getting the electrodes oil wet. • The LPR run was started and baseline corrosion data was collected for approximately 2.5 hours. • During this time 2% (w/w product) stock solutions of samples 1&2 were made up in deionised water.
The skilled reader will appreciate that the bubble test can only be used to evaluate if a product acts as a corrosion inhibitor and to rank corrosion inhibitors in order of effectiveness. […]

[7] = Solubility of samples when making stock solutions; format: physicochemical; conditions: 2% (w/w active) stock solutions in methanol
[8] = 20 ppm active; 1500 rpm; 60° C., CO2
Method: An RCE film persistency test was carried out as follows: • A clean jacketed RCE corrosion cell was fitted with an auxiliary electrode, reference electrode, and gas sparge tube. • The cell was charged with 899.1 g of 5% NaCl brine. • The temperature of the circulator connected to the jacketed cell was set to 60° C. • A constant CO2 sparge of approx. 200 cm^3/min was passed through the brine in the RCE cell which was then left for 1 hour to reach equilibrium. • A C1018 mild steel coupon was washed in xylene and acetone to remove any vapour phase corrosion inhibitor and allowed to dry. • After the RCE cell reached equilibrium the mild steel coupon was connected to the RCE shaft and inserted into the RCE cell. • Isopar M 99.9 g was then carefully transferred into the cell so that it floated on top of the brine. (This is done at this stage to prevent the working electrode from becoming oil wet as a periscope is unavailable) • The rotator was turned on and set to 1500 rpm. • Baseline corrosion data was collected for approximately 2.5 hours. • During this time 2% (w/w active) stock solutions of samples 2 or 3 were made up in methanol.

[9] = Rotating Cylinder Electrode (RCE) film persistency test (4000 rpm); conditions: 20 ppm active, 60° C.
Method: An RCE film persistency test was carried out as follows: • A clean jacketed RCE corrosion cell was fitted with an, auxiliary electrode, reference electrode, and gas sparge tube. • The cell was charged with 899.1 g of 5% NaCl brine. • The temperature of the circulator connected to the jacketed cell was set to 60° C. • A constant CO2 sparge of approx. 200 cm^3/min was passed through the brine in the RCE cell which was then left for 1 hour to reach equilibrium. • A C1018 mild steel coupon was washed in xylene and acetone to remove any vapour phase corrosion inhibitor and allowed to dry. • After the RCE cell reached equilibrium the mild steel coupon was connected to the RCE shaft and inserted into the RCE cell. • Isopar M 99.9 g was then carefully transferred into the cell so that it floated on top of the brine. (This is done at this stage to prevent the working electrode from becoming oil wet as a periscope is unavailable) • The rotator was turned on and set to 4000 rpm. (NB. This is the fastest speed achievable using current available equipment.) • Baseline corrosion data was collected for approximately 2.5 hours. • During this time a 2% (w/w active) stock solution of Rhodafac ASI 80 was made up in methanol. • After the baseline corrosion data was collected the stock solution was injected into the RCE cell at a concentration of 20 ppm (w/w active). • The corrosion rate in the cell was recorded for at least a further 12.5 hours.

Row | Molecule | Average corrosion rate [bubble test] (mils/y) ([1]; 4 ppm) | Average corrosion rate [weight loss] (mils/y) ([1]; 4 ppm) | Effciency at T = 15 (%) ([1]; 4 ppm) | Average corrosion rate [bubble test] (mils/y) ([1]; 20 ppm) | Average corrosion rate [weight loss] (mils/y) ([1]; 20 ppm) | Effciency at T = 15 (%) ([1]; 20 ppm) | Foam Volume after 10 minutes [2] [mL] | Time to 1000 ml (secs) [2] | Average corrosion rate [bubble test] (mils/y) ([3]; 4 ppm) | Average corrosion rate [weight loss] (mils/y) ([3]; 4 ppm) | Effciency at T = 15 (%) ([3]; 4 ppm) | Average corrosion rate [bubble test] (mils/y) ([3]; 20 ppm) | Average corrosion rate [weight loss] (mils/y) ([3]; 20 ppm) | Effciency at T = 15 (%) ([3]; 20 ppm) | Brine (ml) @ T = 30 mins [4] [mL] | Isopar M (ml) @ T = 30 mins [4] | Pad (ml) @ T = 30 mins [4] [mL] | Emulsion Layer (%) [4] [%] | Surface tension at 30 second (mN/m) [5] | other results
1 | CCCCCCCCCCCCP(=O)(O)O [Lauryl Phosphonic Acid (100%), Lauryl Phosphonic Acid] | 174.2 | 146.8 | 27.6 | 33.4 | 58.5 | 98.5% | 0 | No foam | 174.2 | 146.8 | 27.6 | 33.4 | 58.5 | 98.5 | 41 | 12** ml | 0 | 0 | – | observation on the hydrocarbon layer ([4]; emulsification test, footnote): **Lauryl phosphonic acid appears to gel the hydrocarbon, effectively reducing the phase separation rate of the different layers
2 | CCCCCCCCP(=O)(O)O [Octyl Phosphonic Acid] | – | – | – | – | – | – | – | – | – | – | – | – | – | – | – | – | – | – | 58.5* mN/m | –
3 | CCCCCCCCP(=O)(O)O [Octyl Phosphonic Acid (100%)—OPA, Octyl Phosphonic Acid] | – | – | – | – | – | – | – | – | – | – | – | – | – | – | 50 | 50 mL | 0 | 0 | – | –
4 | ethylhexyl acid phosphate | – | – | – | – | – | – | – | – | – | – | – | – | – | – | – | – | – | – | – | corrosion inhibition properties [6]: no corrosion inhibition properties
5 | CCCCCCCCCCCCP(=O)(O)O [Lauryl Phosphonic Acid] | – | – | – | – | – | – | – | – | – | – | – | – | – | – | – | – | – | – | 38.8* mN/m | –
6 | CCCCCCCCP(=O)(O)O [Octyl Phosphonic Acid (80%), Octyl Phosphonic Acid] | 267.4 | 244.3 | 0 | 49.1 | 48.1 | greater than 95% | 0 | No foam | 267.4 | 244.3 | 0 | 49.1 | 48.1 | 96.3 | – | – | – | – | – | Effciency at T = 15 (%) ([1]; 20 ppm, listed as OPA (80%)): 96.3%; solubility in methanol [7]: fully soluble in methanol; Average corrosion rate (RCE test) [8]: 61 mils/y; Average corrosion rate (Weight Loss) [8]: 56 mils/y; Efficiency at T = 15 [8]: 96%; Average corrosion rate (RCE test) ([9]; CO2): 89 mils/y; Average corrosion rate (Weight Loss) ([9]; CO2): 56 mils/y; Effciency at T = 15 ([9]; CO2): 93%; Effciency at T = 15 ([9]; CO2, listed as octylphosphonic acid): > 90%
